“Also recorded” adds a separate entry of the source.

Series [1] relates to HUVEC. The series can be described thus: HUVEC cell proliferation assay (CyQUANT). The class given is cell-based, human. As for the experimental part:
Cell Proliferation Assay. HUVEC were plated at a density of 5000 cells/well in media depleted of fetal calf serum (FCS) overnight to allow the cells to become quiescent. Fresh media containing 5% FCS, 10 ng/ml basic fibroblast growth factor (bFGF) and 3 ng/ml vascular endothelial growth factor (VEGF) were added to the wells along with angiostatin (1.0 μM), antibody directed against the recombinant human alpha-subunit of ATP synthase (1:10 dil), antibody directed against the recombinant human beta-subunit of ATP synthase (1:10 dil), pre-immune serum (1:10 dil) or cycloheximide ([…]). Cell density was measured after 24 hrs using CyQUANT Cell Proliferation Assay Kit (Molecular Probes) in a fluorometric plate reader (Molecular Devices). The absorbance values used to calculate the percent proliferation of the cells ranged from 1.24 or 1.00 for treated and 2.57 for untreated.

The target in series [2] is T1, purified bovine F1 ATP synthase (Bos taurus, UniProt P00829+P19483).
T1 construct: from tissue; host or cells: bovine heart mitochondria
Description: F1 activity assay (ATPase, coupled NADH oxidation at 340 nm). Format: biochemical. The conditions noted are these: NaN3 2%. The protocol: FIG. 12 is a bar graph showing the inhibition of purified F1 ATP synthase by angiostatin. Purified F1 ATP synthase activity was measured spectrophotometrically at λ=340 nm by coupling the production of ADP to the oxidation of NADH via the pyruvate kinase and lactate dehydrogenase reaction in which a decrease in the absorbance at λ=340 nm indicates active protein (dark six membered rings). […] Control antibodies had no effect on activity (light circles and squares). Representative data shown, n=3.
Purification of Bovine Heart F1 ATP Synthase and F1 Activity Assay. Fresh bovine heart mitochondria were obtained as previously described (23) and sonicated to yield sub-mitochondrial particles (24). The F1 portion was separated from membrane-bound FO by chloroform extraction. The aqueous layer was centrifuged at 105,000×g to remove particulate matter before purifying over an S300 gel filtration column. […] ATPase activity was measured spectrophotometrically by monitoring at λ=340 nm by coupling the production of ADP to the oxidation of NADH via pyruvate kinase and lactate dehydrogenase reactions as described in Zheng,& Ramirez, Biochem Biophys Res Commun 261(25):499-503 (1999).

In series [3] the target is T2, ATP synthase on the surface of HUVEC (Homo sapiens, UniProt P05496+P06576+P25705).
T2 construct: endogenous in cells; host or cells: HUVEC (primary human umbilical vein endothelial cells)
Description: Cell-surface ATP generation by bioluminescent luciferase assay. Format: cell-based. The conditions noted are these: oligomycin (0.1 mg/mL per method), 50 μM ADP. As for the experimental part: Cell-surface ATP Assay. […] Cells were treated with (1 μM) angiostatin or (0.1 mg/mL) oligomycin for 1 hr at 37° C. All cells were then incubated with 0.1 Ci ^32P and 0.1 Ci ([…]) [2,8-^3H]-ADP (NEN Life Sciences) for 1 min. Supernatants were removed and centrifuged before assaying for ATP production by thin layer chromatography (TLC) or by firefly luciferase assay. ATP Generation by Bioluminescent Luciferase Assay. […] Louis, Mo.). In this firefly luciferin-luciferase reaction, only ATP is readily detected since the enzymatic reaction of firefly luciferase to oxidize luciferin is specific for ATP relative to all other nucleotides. Samples were injected with the ATP assay mixture and recordings were made in a LuminoskanRS (LabSystems, Franklin, Mass.) over a 10 s period. The response in a given sample or standard was quantified as area under the peak of the response and averaged for duplicate determinations. Data are expressed as picomoles of ATP produced per cell based on standards determined under the same conditions with each experiment. Angiostatin was prepared as described in Sottrup-Jensen, […]., Petersen, T. E. & Magnusson, S. (1978) Progress in Chemical Fibrinolysis and Thrombolysis (Raven Press, New York).

Series [4] relates to angiostatin binding site on HUVEC. Description: Competition binding assay, 125I-labeled angiostatin on HUVEC. The arrangement: species or system human. The protocol: FIG. 6. Competition binding assay between angiostatin and the antibody against the alpha subunit of ATP synthase from E. coli. […] Cells were washed and remaining bound radioactivity was quantified by γ-counting. Non-specific binding was measured in the presence of excess unlabeled angiostatin and was subtracted from total binding. […] Competition studies were also performed simultaneously using rabbit pre-immune serum to account for non-specific inhibition. Error bars represent standard deviation. A 1 tailed homoscedastic t test was used for statistical analysis; p<0.10.
Binding Assays. Ligands were radioiodinated by using Iodobeads (Pierce), repurified on L-lysine-Sepharose, eluted with 100 mM ε-aminocaproic acid, and dialyzed in PBS, pH 7.0 before use in binding assays. […] Nonspecific binding was measured in the presence of excess unlabeled ligand.

Series [5] deals with HUVEC. Description: Direct binding of 125I-labeled plasminogen or angiostatin to endothelial cells, Scatchard analysis. The conditions noted are these: 125I-labeled ligand, 1 h at 4° C., read-out: apparent dissociation constant (Kd). Also on record: species or system human. As for the experimental part: FIGS. 1A and 1B. Direct binding assay and Scatchard analysis of plasminogen and angiostatin with endothelial cells. HUVEC were plated at a density of 10,000 cells/well and incubated with increasing concentrations of ^125I-labeled-plasminogen or angiostatin. FIG. 1A. ^125I-labeled plasminogen binding was concentration-dependent and saturable with an apparent dissociation constant ([…]) of 158 nM and 870,000 sites/cell. FIG. 1B. […] Error bars represent standard deviation.
(§1) Binding Assays. Ligands were radioiodinated by using Iodobeads (Pierce), repurified on L-lysine-Sepharose, eluted with 100 mM ε-aminocaproic acid, and dialyzed in PBS, pH 7.0 before use in binding assays. HUVEC were plated at a density of 5,000 or 10,000 cells/well and incubated with increasing concentrations of ^125I-labeled ligand in media containing 1% BSA for 1 h at 4° C. in 96-well plates. Wells were washed, and remaining bound radioactivity was quantified by using an LKB 1272 γ-radiation counter. Nonspecific binding was measured in the presence of excess unlabeled ligand.

In series [6] the test system is plasminogen binding sites on HUVEC. The series can be described thus: Competition binding assay, 125I-labeled plasminogen on HUVEC. The conditions noted are these: 1.0 μM 125I-labeled plasminogen; 25-fold molar excess of unlabeled plasminogen. The arrangement: species or system human. As for the experimental part:
FIG. 2. Competition binding assay between plasminogen and angiostatin. HUVEC were plated at a density of 10,000 cells/well and incubated with 1.0 μM ^125I-labeled plasminogen in the presence of 100-fold molar excess of unlabeled angiostatin for 1 h at 4° C. Cells were washed and the remaining radioactivity was quantified by γ-counting.
as §1

Series [7] deals with T3, recombinant alpha subunit of human ATP synthase (Homo sapiens, UniProt P25705).
T3 construct: His tag; made in house; host or cells: E. coli BL21DE3
Description: Ligand blot binding to the recombinant alpha subunit of ATP synthase. As for the experimental part: FIGS. 7A-7E. Angiostatin binding to the recombinant alpha subunit of human ATP synthase. The alpha subunit of human ATP synthase was cloned and expressed in E. coli and purified using Qiagen's nickel-Sepharose protein purification system before dialyzing in phosphate buffered saline (PBS), pH 7.0. Recombinant protein was electrophoresed on 5-15% SDS-PAGE, electroblotted onto Immobilon™ membrane and incubated 18 h in 10 mM Tris-HCl, 0.15M NaCl, 0.05% NP40, pH 7.5 (TSN) containing ^125I-angiostatin. For competition studies, unlabeled ligand was added 4 h prior to radiolabeled ligand. Blots were washed in TSN buffer containing 0.05% Tween80 and bound radioactivity was quantified on a Molecular Dynamics PhosphorImager™.
Purification of the alpha-Subunit of ATP Synthase. Competent E. coli BL21DE3 were transformed with the pET24a(+) vector containing the alpha subunit, plated on 2× Bacto-yeast tryptone (YT) agarose, and grown overnight at 37° C. Twenty milliliters of 2× YT containing […] kanamycin was inoculated with one colony and grown overnight at 37° C. (200 rpm). A 1-liter culture (2× YT, […] kanamycin) was inoculated with 20 ml of the noninduced overnight culture and grown at 37° C. to an OD of 0.6 at a wavelength of 600 nm. Isopropyl […] was added to a final concentration of 1 mM and grown for an additional 3 h. Cells were harvested by centrifugation at 8,000 rpm for 10 min and stored overnight at −20° C. Lysates were prepared under denaturing conditions and batch-purified by using Qiagen Ni-NTA agarose. Resulting protein was dialyzed against PBS, pH 7.0 for use in all experiments.

Regarding `C[C@@H]1C[C@@H]([C@H](O)CC2CC(=O)NC(=O)C2)C(=O)[C@@H](C)C1` [Cycloheximide], the inhibition at 10 µg/mL in series [1] (Homo sapiens, HUVEC, 24 h, read-out: Percent Inhibition (+/− S.E.M.) of HUVEC proliferation) amounted to 100%. The “cellular morphology of treated cells” value in series [1] (compared with untreated cells, data not shown) is “obvious rounded morphology”.
For `[N-]=[N+]=[N-].[Na+]` [NaN3, reference compound], in series [2], the “inhibition of purified F1 ATPase activity” value is reported as “completely inhibited”.
With `CC[C@H]1/C=C/C=C/C[C@@H](C)[C@H](O)[C@@](C)(O)C(=O)[C@@H](C)[C@H](O)[C@@H](C)C(=O)[C@@H](C)[C@H](O)[C@@H](C)/C=C/C(=O)O[C@@H]2[C@H](C)[C@H](CC1)O[C@]1(CC[C@H](C)[C@H](C[C@@H](C)O)O1)[C@H]2C` [Oligomycin, reference compound], the inhibition at 100 µg/mL in series [3] (HUVEC, read-out: Percent Inhibition (+/− S.E.M.) of ATP generation) came out at 84%. For the same compound, the “Percent Inhibition (+/− S.E.M.) of ATP generation” value in series [3] was 83.5 +/− 4.5%.
As to `NCCCCCC(=O)O` [ε-aminocaproic acid, reference compound], the “inhibition of 125I-labeled angiostatin binding” value in series [4] (100 mM ε-aminocaproic acid, data not shown) was “only slightly inhibited”.
“plasminogen: purified from human plasma by affinity chromatography, 92 kDa”: in series [5], the Kd was determined as 158 nM. The “inhibition of 125I-labeled plasminogen binding” value in series [6] is “about 80%”. The “inhibition of 125I-labeled angiostatin binding” value in series [4] (excess unlabeled plasminogen (2-fold molar excess in FIG. 2 legend)) is reported as “little or no effect; also recorded: no inhibition”. For the same compound, in series [7] (0.5 nM 125I-labeled angiostatin, 2500-fold molar excess of unlabeled plasminogen), the “inhibition of 125I-labeled angiostatin binding to recombinant alpha subunit” value is “not inhibited”. Besides, in series [7] (ligand blot), the “binding of 125I-labeled ligand to recombinant alpha subunit” value was “did not bind”.

The record behind these values is patent publication US20040022788A1, “Compositions and methods for promoting or inhibiting angiogenesis” (priority 1998, published 2004).
